The values that follow come from a melting point compilation (Tetko et al.).

The structures appear in SMILES notation.

Consider `Cc1ccc(NC(=O)C2(CN)CCCC2)cc1C`, for which the melting point lay in the range of 113 to 115 °C.

As to `NS(=O)(=O)c1ccc(N2CCCC2=O)cc1`, the melting point lay in the range of 247 to 249 °C. As to `Nn1c(S)nnc1C1CCOC1` (configuration not stated), the melting point was 116 to 118 °C. The value for `CC(CC(=O)O)c1ccc(F)cc1F` (configuration not stated) was 66 to 68 °C. The result for `O=C(O)CNC(=O)CC12CC3CC(CC(C3)C1)C2` reads 165 to 167 °C; that for `CC(C)(C)C(=O)NO`, 169 to 171 °C; that for `Cc1cccn2cc(COc3ccccc3C(=O)O)nc12`, 199 to 201 °C. The value for `COc1ccccc1C(N)C(=O)O` (configuration not stated) was 169 to 171 °C; that for `Cc1cc(N)ccc1NC(=O)c1cccc(S(C)(=O)=O)c1` was 149 to 151 °C; that for `Cc1nc(-c2cccc(N)c2)[nH]c1C` was 235 to 237 °C. `Cc1cc(C(=O)O)nn1C(F)F` registered a melting point of 175 to 177 °C. The result for `CS(=O)(=O)c1cc(C(=O)O)cs1` reads 204 to 206 °C; that for `N#Cc1ccc(NC(N)=O)cc1`, 234 to 236 °C.

Compound `CCOC(=O)c1noc(C)n1` had a melting point of 32 to 34 °C.

`NNC(=O)c1ccc(S(=O)(=O)N2CCN(Cc3ccccc3)CC2)cc1`: the melting point fell in the range of 135 to 137 °C. The result for `CN(C)c1ccc(C(N)=S)cc1` reads 117 to 119 °C; that for `O=C(O)CCSc1ccc(Cl)cc1`, 85 to 87 °C. The result for `Cc1ccccc1-c1noc(S)n1` reads 150 to 152 °C; that for `COc1ccccc1-c1nnc(S)o1`, 243 to 245 °C; that for `CCOc1cccc2cc(C(C)=O)oc12`, 72 to 74 °C.

In turn, `Cc1sc2nc(-c3ccc(OC(F)F)cc3)nc(Cl)c2c1C` displayed a melting point of 140 to 142 °C. `CCN(CC)c1ccc(S(N)(=O)=O)cc1N`: the melting point is 102 to 104 °C. The result for `COc1cc(C(C)=O)ccc1S(C)(=O)=O` reads 124 to 126 °C; that for `c1ccc2[nH]c(-c3ccncc3)cc2c1`, 208 to 210 °C. The result for `N#Cc1ccc(OCCBr)cc1` reads 55 to 59 °C; that for `c1ccc(CN2CCOC(c3nn[nH]n3)C2)cc1` (configuration not stated), 178 to 180 °C. In turn, `CCOc1ccc(S(=O)(=O)N2CCNCC2)cc1OCC` came in with a melting point of 132 to 134 °C. As to `O=C(O)c1[nH]nc(C2CC2)c1Cl`, the melting point lay within 231 to 233 °C. The result for `CC1=NN(c2cccc(Br)c2)C(=O)C1CC(=O)O` (configuration not stated) reads 201 to 203 °C; that for `O=C(O)c1nnn(-c2ccccc2F)c1C(F)(F)F`, 133 to 135 °C.

In the case of `O=C(c1cn[nH]c1)N1CCN(c2ccccn2)CC1`, the melting point was in the range of 194 to 196 °C. The result for `Nc1ccnn1Cc1cccc2ccccc12` reads 136 to 140 °C. The value for `Cc1nnc2ccc(Cl)nn12` was 103 to 105 °C; that for `N#CCc1cc(F)cc2c1OCOC2` was 75 to 77 °C.

`CC(C)C(Br)C(=O)c1ccccc1` (configuration not stated) gave a melting point of 49 to 51 °C. Regarding `O=C(NCc1ccccc1)OCC(F)(F)F`, the melting point is 62 to 66 °C. The result for `O=c1nc(Cl)sc2ccccc12` reads 108 to 110 °C. The compound `O=S(=O)(c1cccc2c1N=S=N2)N1CCNCC1` showed a melting point of 178 to 183 °C. The value for `COc1ccc(-c2csc(N)n2)cc1C` was 179 to 181 °C; that for `NC(=O)NCC(=O)O` was 174 to 176 °C. The value for `O=C(C=NO)Nc1cccc(C(F)(F)F)c1` was 115 to 117 °C; that for `CCOC(=O)c1cc(C23CC4CC(CC(C4)C2)C3)[nH]n1` was 192 to 194 °C; that for `O=c1c(Cl)nccn1C1CC1` was 90 to 92 °C. The value for `O=C(O)CN1CC(=O)Oc2ccccc21` was 176 to 178 °C; that for `CC(=O)c1cnc2cc(C)nn2c1C` was 144 to 146 °C; that for `CC(C)N(C(C)C)S(=O)(=O)c1ccc(NN)nc1` was 159 to 161 °C. `O=C(CCCl)Nc1ccccn1`: the melting point fell in the range of 104 to 106 °C. `O=C(O)C1CCN(c2ccc3cccc(O)c3n2)CC1` came in with a melting point of 281 to 283 °C. The value for `Nc1cccc(NC(=O)CO)c1` was 150 to 152 °C. In the case of `COc1ccccc1NC(=O)CC(=O)Nc1ccccc1OC`, the melting point is 154 to 156 °C. The result for `CC(=O)CC(=O)NCCc1ccccc1` reads 57 to 59 °C. The value for `CC(C)CCC(C)NC(=O)C1CSCN1` (configuration not stated) was 77 to 79 °C; that for `CN1CCNc2cccnc21` was 89 to 91 °C; that for `O=S(=O)(Nc1cn[nH]c1)c1ccccc1F` was 186 to 188 °C. The value for `CN(CC(=O)O)S(=O)(=O)c1ccc2c(c1)OCCO2` was 141 to 143 °C; that for `CS(=O)(=O)c1ccc(Cl)c(S(=O)(=O)Cl)c1` was 141 to 143 °C; that for `CN(C)C(=N)CC#N` was 79 to 81 °C.

The compound `O=C(O)c1cnoc1` displayed a melting point of 99 to 101 °C.

For `CS(=O)(=O)c1nc2ccccc2[nH]1`, the melting point lay within 188 to 192 °C. The result for `O=C(O)CCN1C(=O)CCC1=O` reads 131 to 133 °C; that for `O=[N+]([O-])c1cccc(F)c1S(=O)(=O)Cl`, 89 to 91 °C. The result for `COc1cc(-c2ccccc2)sc1C(=O)O` reads 167 to 169 °C; that for `CCOc1ccc(NS(=O)(=O)c2ccc(N)cc2)cc1`, 145 to 147 °C; that for `Cc1cc(Br)cc2cc(C(=O)C(C)C)oc12`, 69 to 71 °C. The result for `O=C(O)C1C2C=CC(C2)C1C(=O)N1CCN(CCO)CC1` (configuration not stated) reads 192 to 194 °C.

Compound `Cc1ccc(N2C(=O)CC(C(=O)O)C2c2cccs2)cc1` (configuration not stated) came in with a melting point of 175 to 177 °C. The result for `Cc1ccc(C)c(OCc2nnc(S)o2)c1` reads 135 to 137 °C; that for `FC(F)(F)c1cccc(-c2ccc(Cl)nn2)c1`, 133 to 135 °C; that for `NC(=NO)c1ccc(OCc2ccccc2)cc1`, 167 to 169 °C. `CCC(O)CNc1ccccc1` (configuration not stated) yielded a melting point of 48 to 50 °C. Regarding `Cc1nc(S)c2c(C)c(C)sc2n1`, the melting point is 193 to 195 °C. Compound `CC1CC1c1cc(N)on1` (configuration not stated) showed a melting point of 55 to 57 °C.

The compound `NC(=O)C(N)Cc1ccccc1` (configuration not stated) yielded a melting point of 93 to 95 °C.

Regarding `O=[N+]([O-])c1[nH]cnc1-c1ccc(F)cc1`, the melting point was 290 to 292 °C.

Compound `Cc1cc2nc(-c3cccc4ncccc34)[nH]c2cc1C` returned a melting point of 129 to 131 °C. The value for `COc1ccc(-c2cncc(C(=O)O)c2)cc1` was 278 to 280 °C; that for `CNS(=O)(=O)c1ccc(C(C)=O)cc1` was 109 to 111 °C. The result for `CC(C)(Sc1ccc(Br)cc1)C(=O)O` reads 109 to 111 °C; that for `Cc1nc2c(c(C)nn2C)c(C)c1CC(=O)O`, 245 to 247 °C. The result for `CC(=O)NCc1ccc(-c2csc(N)n2)s1` reads 221 to 223 °C; that for `CSCCC(C(=O)O)N1C(=O)C2CCCCC2C1=O` (configuration not stated), 268 to 270 °C. In the case of `N#CC(N)c1cccc(Cl)c1Cl` (configuration not stated), the melting point lay in the range of 114 to 116 °C.

Compound `O=C(O)CCC1CCNCC1` came in with a melting point of 275 to 277 °C. The result for `Oc1nc(S)nc2c1CCC2` reads 288 to 290 °C.

`Cc1ccc(Cn2nc(C)c(C=O)c2C)cc1` registered a melting point of 65 to 67 °C. The result for `Cc1ccc2[nH]c(-c3ccc(Br)cc3)c(CCC(=O)O)c2c1` reads 101 to 103 °C.

`COC(=O)C(CO)NC(=O)C1CCCCC1` (configuration not stated) gave a melting point of 109 to 111 °C.

`CC(Cl)c1nc(-c2nnc[nH]2)no1` (configuration not stated) yielded a melting point of 187 to 189 °C. The result for `CSc1noc(N)n1` reads 100 to 102 °C; that for `Cc1nc(-c2cnn(C)c2)sc1C(=O)O`, 230 to 232 °C. `Cc1cc(C(C)(C)C)cc(C)c1S(=O)(=O)Cl` showed a melting point of 113 to 115 °C. For `O=Cc1cnn(Cc2ccccc2)c1`, the melting point fell in the range of 43 to 45 °C. The value for `Cc1cc(C(=O)N2CCCC2)ccc1N` was 124 to 126 °C; that for `COC(=O)c1scnc1C1CC1` was 59 to 61 °C.

On to `CC1C(=O)NC1c1ccccc1` (configuration not stated), for which the melting point fell in the range of 92 to 94 °C.

With `Cn1ccnc1-c1nnc(N)s1`, the melting point was in the range of 263 to 265 °C. The result for `COc1cc(NC(=O)c2ccco2)c(C(=O)O)cc1OC` reads 88 to 90 °C; that for `CNC(=O)c1cccc(CCl)c1`, 61 to 63 °C.

`CN(C)c1ccc(Br)c(S(=O)(=O)Cl)c1` displayed a melting point of 111 to 113 °C. The value for `NCC1(O)CCOCC1` was 65 to 67 °C. Regarding `CC(C)c1cccc(N2CC(C(=O)O)CC2=O)c1` (configuration not stated), the melting point lay within 126 to 128 °C. The result for `Cc1ccc(S(=O)(=O)NC(CC(N)=O)C(=O)O)cc1C` (configuration not stated) reads 179 to 181 °C; that for `O=C(O)C1CC(=O)N(C2CC2)C1` (configuration not stated), 93 to 95 °C. Take `Cc1cnc(O)c([N+](=O)[O-])c1`: the melting point is 247 to 249 °C. Regarding `CC(=O)Nc1ccc(N)c(Cl)c1`, the melting point was in the range of 113 to 115 °C. Consider `CN(Cc1ccccc1)c1nc2ccccc2[nH]1`, for which the melting point lay in the range of 206 to 208 °C. The value for `NC(=O)Cn1cc(C(=O)O)nn1` was 198 to 200 °C. The result for `CC(SCc1ncc(-c2ccc(Cl)cc2)o1)C(=O)O` (configuration not stated) reads 129 to 131 °C.

Take `Cc1ccc(C(=O)Nc2nc3ccc(N)cc3s2)s1`: the melting point was 250 to 252 °C.

The compound `Nc1[nH]nc(-c2ccccc2)c1-c1ccccc1` had a melting point of 141 to 143 °C. The result for `N#CC1(NC(=O)CCl)CCCCC1` reads 130 to 132 °C; that for `NC(=O)CCCl`, 142 to 144 °C. The result for `Cc1csc(C2(O)C(=O)N(Cc3ccccc3)CC2C(=O)O)n1` (configuration not stated) reads 109 to 111 °C; that for `CCNc1ncccc1N`, 108 to 110 °C; that for `Cc1ccc(C(=O)O)cc1S(=O)(=O)N1CCCCC1`, 179 to 181 °C. `Nc1cc(Br)ccc1O` had a melting point of 127 to 129 °C. Regarding `O=C1NC(=O)C2(CCNCC2)N1`, the melting point fell in the range of 240 to 250 °C. The value for `CC1(Br)CS(=O)(=O)CC1Br` (configuration not stated) was 126 to 128 °C; that for `NS(=O)(=O)C#Cc1ccccc1` was 136 to 138 °C; that for `COc1ccc(COc2ccc(C#N)cn2)cc1` was 101 to 103 °C. The result for `COc1cc(OC)cc(-c2nnc(S)n2N)c1` reads 178 to 180 °C. As for `Fc1ccc(OCc2ccc3ccccc3n2)c(Br)c1`, the melting point lay within 124 to 126 °C.

In general, melting point refers to the temperature, or range, at which the solid turns liquid.
